These results are taken from patent US20230085307A1, “PYRIDAZINONE COMPOUND AND HERBICIDE” (NISSAN CHEMICAL CORPORATION, priority 2019, published 2023).

Structures are written as SMILES.

Test [1] deals with barnyard grass. Briefly: Test Example 4: herbicidal effect by soil treatment (Table 19, symbol H). It is filed as in vivo, barnyard grass (Echinochloa crus-galli). In a few lines: (§1)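 Soil-surface application: an emulsion agent diluted with water to the predetermined dose is sprayed uniformly over seeds lying under roughly 1.5 cm of sterilized diluvial soil. Boxes stay in a greenhouse at 25° C. to 30° C. Three weeks later, each species is graded on previously defined criteria.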

In test [2] the test system is green foxtail. Briefly: Test Example 5: herbicidal effect by foliage application, plastic box (Table 20, symbol G). It is filed as in vivo, green foxtail (Setaria viridis). The conditions noted are these: foliage application, three weeks after application. The gist of the method: (§2)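 Sow seeds spot-wise in sterilized diluvial soil; cover with ~1.5 cm soil. Grow 14 days in greenhouse, 25° C. to 30° C. Spray foliage with emulsion diluted to predetermined amount. Rate effect after 3 weeks.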

Test [3] concerns Italian ryegrass. Description: Test Example 5: herbicidal effect by foliage application, plastic box (Table 20, symbol K). The following applies: foliage application, three weeks after application. It is filed as in vivo, Italian ryegrass (Lolium multiflorum). In a few lines:
as §2

Test [4] concerns chickweed. Description: Test Example 4: herbicidal effect by soil treatment (Table 19, symbol P). It is filed as in vivo, common chickweed (Stellaria media). In a few lines: as §1
In test [5] the test system is southern crabgrass. Description: Test Example 5: herbicidal effect by foliage application, plastic box (Table 20, symbol F). The conditions noted are these: foliage application, three weeks after application. Format: in vivo, southern crabgrass (Digitaria ciliaris). The gist of the method: as §2
In test [6] the test system is wild oat. Briefly: Test Example 4: herbicidal effect by soil treatment (Table 19, symbol I). Format: in vivo, wild oat (Avena fatua). The gist of the method:
as §1

Test [7] concerns blackgrass. Briefly: Test Example 5: herbicidal effect by foliage application, plastic box (Table 20, symbol J). Format: in vivo, blackgrass (Alopecurus myosuroides). The conditions noted are these: foliage application, three weeks after application. In a few lines: as §2
For test [8], the system named is velvetleaf. Description: Test Example 4: herbicidal effect by soil treatment (Table 19, symbol M). Format: in vivo, velvetleaf (Abutilon theophrasti). The gist of the method:
as §1

In test [9] the test system is persian speedwell. Description: Test Example 4: herbicidal effect by soil treatment (Table 19, symbol R). Format: in vivo, Persian speedwell (Veronica persica). In a few lines:
as §1

In test [10] the test system is wild oat. Briefly: Test Example 5: herbicidal effect by foliage application, plastic box (Table 20, symbol I). The conditions noted are these: foliage application, three weeks after application. It is filed as in vivo, wild oat (Avena fatua). The gist of the method: as §2
Test [11] has as its system persian speedwell. Briefly: Test Example 5: herbicidal effect by foliage application, plastic box (Table 20, symbol R). It is filed as in vivo, Persian speedwell (Veronica persica). The following applies: foliage application, three weeks after application. In a few lines: as §2
For test [12], the system named is blackgrass. Description: Test Example 4: herbicidal effect by soil treatment (Table 19, symbol J). It is filed as in vivo, blackgrass (Alopecurus myosuroides). In a few lines:
as §1

Test [13] deals with windgrass. Briefly: Test Example 4: herbicidal effect by soil treatment (Table 19, symbol L). It is filed as in vivo, windgrass (Apera spica-venti). In a few lines:
as §1

Test [14] concerns Italian ryegrass. Briefly: Test Example 4: herbicidal effect by soil treatment (Table 19, symbol K). Format: in vivo, Italian ryegrass (Lolium multiflorum). In a few lines: as §1
The test system of test [15] is redroot pigweed. Description: Test Example 5: herbicidal effect by foliage application, plastic box (Table 20, symbol N). It is filed as in vivo, redroot pigweed (Amaranthus retroflexus). The following applies: foliage application, three weeks after application. The gist of the method:
as §2

Test [16] has as its system chickweed. Briefly: Test Example 5: herbicidal effect by foliage application, plastic box (Table 20, symbol P). The following applies: foliage application, three weeks after application. Format: in vivo, common chickweed (Stellaria media). In a few lines: as §2
Test [17] relates to redroot pigweed. Description: Test Example 4: herbicidal effect by soil treatment (Table 19, symbol N). It is filed as in vivo, redroot pigweed (Amaranthus retroflexus). In a few lines: as §1
The subject of test [18] is green foxtail. Description: Test Example 4: herbicidal effect by soil treatment (Table 19, symbol G). Format: in vivo, green foxtail (Setaria viridis). The gist of the method: as §1
Test [19] relates to barnyard grass. Description: Test Example 5: herbicidal effect by foliage application, plastic box (Table 20, symbol H). It is filed as in vivo, barnyard grass (Echinochloa crus-galli). The conditions noted are these: foliage application, three weeks after application. In a few lines:
as §2

For test [20], the system named is southern crabgrass. Briefly: Test Example 4: herbicidal effect by soil treatment (Table 19, symbol F). It is filed as in vivo, southern crabgrass (Digitaria ciliaris). In a few lines:
as §1

The subject of test [21] is lambsquarters. Briefly: Test Example 5: herbicidal effect by foliage application, plastic box (Table 20, symbol O). It is filed as in vivo, lambsquarters (Chenopodium album). The conditions noted are these: foliage application, three weeks after application. In a few lines:
as §2

In test [22] the test system is windgrass. Description: Test Example 5: herbicidal effect by foliage application, plastic box (Table 20, symbol L). It is filed as in vivo, windgrass (Apera spica-venti). The following applies: foliage application, three weeks after application. The gist of the method: as §2
Test [23] relates to velvetleaf. Description: Test Example 5: herbicidal effect by foliage application, plastic box (Table 20, symbol M). Format: in vivo, velvetleaf (Abutilon theophrasti). The conditions noted are these: foliage application, three weeks after application. The gist of the method: as §2
In test [24] the test system is lambsquarters. Briefly: Test Example 4: herbicidal effect by soil treatment (Table 19, symbol O). Format: in vivo, lambsquarters (Chenopodium album). The gist of the method: as §1

On to `CCCC(=O)Oc1c(OC)nn(C)c(=O)c1-c1c(-c2ccc(OC)cc2OC)sc2ccccc12` [1-181], for which the “H: barnyard grass, herbicidal effect rating” value with barnyard grass [1] (AAH 320 g/ha) was 0 (Herbicidal rate of 5% or less (almost no effect)). Moreover, in the test with green foxtail [2] (AAH 320 g/ha), the “G: green foxtail, herbicidal effect” value is reported as 0 (Herbicidal rate of 5% or less (almost no effect)). Moreover, the “K: Italian ryegrass, herbicidal effect” value in the test with Italian ryegrass [3] (AAH 320 g/ha) is reported as 0 (Herbicidal rate of 5% or less (almost no effect)). In addition, the “P: chickweed, herbicidal effect rating” value with chickweed [4] (AAH 320 g/ha) is 1 (Herbicidal rate of 5% or more and less than 20%). Further, the “F: southern crabgrass, herbicidal effect” value in the test with southern crabgrass [5] (AAH 320 g/ha) is given as 0 (Herbicidal rate of 5% or less (almost no effect)). In addition, the “I: wild oat, herbicidal effect rating” value with wild oat [6] (AAH 320 g/ha) is given as 0 (Herbicidal rate of 5% or less (almost no effect)). Also, the “J: blackgrass, herbicidal effect” value in the test on blackgrass [7] (AAH 320 g/ha) is given as 0 (Herbicidal rate of 5% or less (almost no effect)). Further, in the test with velvetleaf [8] (AAH 320 g/ha), the “M: velvetleaf, herbicidal effect rating” value was 0 (Herbicidal rate of 5% or less (almost no effect)). The “R: persian speedwell, herbicidal effect rating” value in the test on persian speedwell [9] (AAH 320 g/ha) is 1 (Herbicidal rate of 5% or more and less than 20%). The “I: wild oat, herbicidal effect” value in the test with wild oat [10] (AAH 320 g/ha) was 0 (Herbicidal rate of 5% or less (almost no effect)). For the same compound, the “R: persian speedwell, herbicidal effect” value in the test on persian speedwell [11] (AAH 320 g/ha) was 1 (Herbicidal rate of 5% or more and less than 20%). Also, the “J: blackgrass, herbicidal effect rating” value in the test on blackgrass [12] (AAH 320 g/ha) is given as 0 (Herbicidal rate of 5% or less (almost no effect)). Also, the “L: windgrass, herbicidal effect rating” value in the test with windgrass [13] (AAH 320 g/ha) is listed as 0 (Herbicidal rate of 5% or less (almost no effect)). Further, the “K: Italian ryegrass, herbicidal effect rating” value with Italian ryegrass [14] (AAH 320 g/ha) is reported as 0 (Herbicidal rate of 5% or less (almost no effect)). The “N: redroot pigweed, herbicidal effect” value in the test on redroot pigweed [15] (AAH 320 g/ha) is reported as 0 (Herbicidal rate of 5% or less (almost no effect)). In addition, the “P: chickweed, herbicidal effect” value with chickweed [16] (AAH 320 g/ha) was 4 (Herbicidal rate of 70% or more and less than 90%). Besides, the “N: redroot pigweed, herbicidal effect rating” value in the test on redroot pigweed [17] (AAH 320 g/ha) is 0 (Herbicidal rate of 5% or less (almost no effect)). For the same compound, the “G: green foxtail, herbicidal effect rating” value in the test on green foxtail [18] (AAH 320 g/ha) is recorded as 0 (Herbicidal rate of 5% or less (almost no effect)). For the same compound, in the test on barnyard grass [19] (AAH 320 g/ha), the “H: barnyard grass, herbicidal effect” value is listed as 0 (Herbicidal rate of 5% or less (almost no effect)). Moreover, the “F: southern crabgrass, herbicidal effect rating” value in the test with southern crabgrass [20] (AAH 320 g/ha) is on record as 0 (Herbicidal rate of 5% or less (almost no effect)). Further, in the test on lambsquarters [21] (AAH 320 g/ha), the “O: lambsquarters, herbicidal effect” value is 1 (Herbicidal rate of 5% or more and less than 20%). In the test on windgrass [22] (AAH 320 g/ha), the “L: windgrass, herbicidal effect” value is given as 0 (Herbicidal rate of 5% or less (almost no effect)). The “M: velvetleaf, herbicidal effect” value in the test on velvetleaf [23] (AAH 320 g/ha) was 0 (Herbicidal rate of 5% or less (almost no effect)). In the test on lambsquarters [24] (AAH 320 g/ha), the “O: lambsquarters, herbicidal effect rating” value is 0 (Herbicidal rate of 5% or less (almost no effect)).
On to `COc1nn(C)c(=O)c(-c2c(-c3cc(F)c(F)c(F)c3)sc3ccccc23)c1O` [1-186], for which, in the test on barnyard grass [1] (AAH 283 g/ha), the “H: barnyard grass, herbicidal effect rating” value is listed as 0 (Herbicidal rate of 5% or less (almost no effect)). Also, in the test on green foxtail [2] (AAH 283 g/ha), the “G: green foxtail, herbicidal effect” value is 0 (Herbicidal rate of 5% or less (almost no effect)). Moreover, the “K: Italian ryegrass, herbicidal effect” value in the test on Italian ryegrass [3] (AAH 283 g/ha) is 0 (Herbicidal rate of 5% or less (almost no effect)). The “P: chickweed, herbicidal effect rating” value with chickweed [4] (AAH 283 g/ha) is on record as 5 (Herbicidal rate of 90% or more (almost completely withered)). Further, in the test with southern crabgrass [5] (AAH 283 g/ha), the “F: southern crabgrass, herbicidal effect” value is 0 (Herbicidal rate of 5% or less (almost no effect)). Moreover, the “I: wild oat, herbicidal effect rating” value in the test on wild oat [6] (AAH 283 g/ha) is listed as 0 (Herbicidal rate of 5% or less (almost no effect)). Besides, the “J: blackgrass, herbicidal effect” value with blackgrass [7] (AAH 283 g/ha) is given as 0 (Herbicidal rate of 5% or less (almost no effect)). Moreover, in the test with velvetleaf [8] (AAH 283 g/ha), the “M: velvetleaf, herbicidal effect rating” value is on record as 0 (Herbicidal rate of 5% or less (almost no effect)). Besides, the “R: persian speedwell, herbicidal effect rating” value in the test on persian speedwell [9] (AAH 283 g/ha) was 4 (Herbicidal rate of 70% or more and less than 90%). Besides, the “I: wild oat, herbicidal effect” value with wild oat [10] (AAH 283 g/ha) is reported as 0 (Herbicidal rate of 5% or less (almost no effect)). The “R: persian speedwell, herbicidal effect” value in the test with persian speedwell [11] (AAH 283 g/ha) is given as 5 (Herbicidal rate of 90% or more (almost completely withered)). In addition, the “J: blackgrass, herbicidal effect rating” value in the test with blackgrass [12] (AAH 283 g/ha) was 0 (Herbicidal rate of 5% or less (almost no effect)). Also, the “L: windgrass, herbicidal effect rating” value in the test with windgrass [13] (AAH 283 g/ha) is reported as 0 (Herbicidal rate of 5% or less (almost no effect)). In addition, the “K: Italian ryegrass, herbicidal effect rating” value in the test on Italian ryegrass [14] (AAH 283 g/ha) was 0 (Herbicidal rate of 5% or less (almost no effect)). Moreover, the “N: redroot pigweed, herbicidal effect” value in the test on redroot pigweed [15] (AAH 283 g/ha) is 4 (Herbicidal rate of 70% or more and less than 90%). In addition, the “P: chickweed, herbicidal effect” value in the test on chickweed [16] (AAH 283 g/ha) was 5 (Herbicidal rate of 90% or more (almost completely withered)). The “N: redroot pigweed, herbicidal effect rating” value in the test with redroot pigweed [17] (AAH 283 g/ha) was 2 (Herbicidal rate of 20% or more and less than 40%). For the same compound, in the test with green foxtail [18] (AAH 283 g/ha), the “G: green foxtail, herbicidal effect rating” value was 0 (Herbicidal rate of 5% or less (almost no effect)). Besides, the “H: barnyard grass, herbicidal effect” value in the test with barnyard grass [19] (AAH 283 g/ha) is listed as 0 (Herbicidal rate of 5% or less (almost no effect)). Besides, the “F: southern crabgrass, herbicidal effect rating” value with southern crabgrass [20] (AAH 283 g/ha) is 0 (Herbicidal rate of 5% or less (almost no effect)). Also, the “O: lambsquarters, herbicidal effect” value in the test with lambsquarters [21] (AAH 283 g/ha) was 2 (Herbicidal rate of 20% or more and less than 40%). For the same compound, the “L: windgrass, herbicidal effect” value in the test on windgrass [22] (AAH 283 g/ha) is reported as 0 (Herbicidal rate of 5% or less (almost no effect)). Moreover, the “M: velvetleaf, herbicidal effect” value in the test with velvetleaf [23] (AAH 283 g/ha) was 3 (Herbicidal rate of 40% or more and less than 70%). For the same compound, the “O: lambsquarters, herbicidal effect rating” value in the test with lambsquarters [24] (AAH 283 g/ha) was 0 (Herbicidal rate of 5% or less (almost no effect)).
